Data as given in paper PMC9916969 (International Journal of Molecular Sciences, 2023).
Read-outs that look alike come from different tables or passages of the source.

Assays:
[1] = FRAP assay; settings: Trolox equivalents; 60 min, 37 °C; n.a. = not active
Method: The Ferric Reducing Antioxidant Power (FRAP) test involves reduction of the ferric 2,4,6-tripyridyl-s-triazine complex [Fe(TPTZ)2]^3+ to an intense-blue ferrous complex [Fe(TPTZ)2]^2+ [92], as previously reported. Results are given as Trolox Equivalents (TE).
The FRAP (ferric reducing antioxidant power) assay proposed by Benzie and Strain [92] was modified to be performed in 96-well microplates as described in detail in [53]. The FRAP reagent contained 2.5 mL of 10 mM TPTZ (2,4,6-tris(2-pyridyl)-s-triazine, Sigma-Aldrich) solution in 40 mM HCl, 2.5 mL of 20 mM FeCl3 (Sigma-Aldrich) in distilled water and 25 mL of 0.3 M acetate buffer (pH 3.6). Aliquots of 10 µL of the test compound dissolved in DMSO (0.5 mM) were placed in quadruplicate. Absorbance was measured at a wavelength of 593 nm after 60 min incubation at 37 °C. In each case, Trolox was used as a reference compound to obtain the standard curve. The AO activity was calculated with respect to the activity of Trolox and expressed as Trolox equivalents (TE)—the values calculated as the ratio of the concentrations of Trolox and the test compound resulting in the same effect on ferric reducing activity.

[2] = molecular target: T1, AChE (Homo sapiens, UniProt P22303); experiment: Kinetic study of AChE inhibition (Lineweaver-Burk); type: biochemical
T1 construct: human erythrocyte AChE, equine serum BChE, and porcine liver CES were used; purchased Sigma-Aldrich; host or cells: human erythrocytes (tissue-derived)
T1 sequence (P22303 32-617 isoform P22303-2 limits assumed): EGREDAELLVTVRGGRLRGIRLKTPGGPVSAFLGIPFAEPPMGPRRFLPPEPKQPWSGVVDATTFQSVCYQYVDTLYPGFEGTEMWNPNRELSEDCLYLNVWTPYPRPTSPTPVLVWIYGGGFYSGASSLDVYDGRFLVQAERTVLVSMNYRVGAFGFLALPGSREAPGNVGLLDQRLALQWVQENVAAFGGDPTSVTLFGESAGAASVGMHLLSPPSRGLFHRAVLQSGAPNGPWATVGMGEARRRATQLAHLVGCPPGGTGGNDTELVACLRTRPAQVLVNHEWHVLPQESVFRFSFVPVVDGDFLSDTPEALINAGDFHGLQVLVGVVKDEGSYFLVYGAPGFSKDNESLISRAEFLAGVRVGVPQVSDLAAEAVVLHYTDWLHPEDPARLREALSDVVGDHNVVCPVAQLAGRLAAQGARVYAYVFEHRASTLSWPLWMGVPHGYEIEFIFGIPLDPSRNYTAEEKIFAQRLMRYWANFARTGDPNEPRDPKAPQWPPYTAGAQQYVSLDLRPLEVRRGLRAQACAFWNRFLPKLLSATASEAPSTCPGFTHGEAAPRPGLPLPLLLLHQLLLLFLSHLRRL
Method: (§1) We assessed the mechanisms of AChE and BChE inhibition by performing a thorough analysis of enzyme kinetics. After a 5 min incubation at 25 °C (for temperature equilibration) with three increasing concentrations of inhibitor and six decreasing substrate concentrations, the residual enzyme activity was measured as described above for enzymatic assays.

[3] = molecular target: T2, EeAChE PAS (Electrophorus electricus, UniProt O42275); type: binding; settings: compound 20 µM; EeAChE 7 µM; propidium iodide 8 µM
T2 construct: The enzyme was electric eel AChE (EeAChE type VI-S, lyophilized powder, Sigma-Aldrich); purchased Sigma-Aldrich type VI-S; host or cells: electric eel (tissue-derived)
T2 sequence (O42275 24-633): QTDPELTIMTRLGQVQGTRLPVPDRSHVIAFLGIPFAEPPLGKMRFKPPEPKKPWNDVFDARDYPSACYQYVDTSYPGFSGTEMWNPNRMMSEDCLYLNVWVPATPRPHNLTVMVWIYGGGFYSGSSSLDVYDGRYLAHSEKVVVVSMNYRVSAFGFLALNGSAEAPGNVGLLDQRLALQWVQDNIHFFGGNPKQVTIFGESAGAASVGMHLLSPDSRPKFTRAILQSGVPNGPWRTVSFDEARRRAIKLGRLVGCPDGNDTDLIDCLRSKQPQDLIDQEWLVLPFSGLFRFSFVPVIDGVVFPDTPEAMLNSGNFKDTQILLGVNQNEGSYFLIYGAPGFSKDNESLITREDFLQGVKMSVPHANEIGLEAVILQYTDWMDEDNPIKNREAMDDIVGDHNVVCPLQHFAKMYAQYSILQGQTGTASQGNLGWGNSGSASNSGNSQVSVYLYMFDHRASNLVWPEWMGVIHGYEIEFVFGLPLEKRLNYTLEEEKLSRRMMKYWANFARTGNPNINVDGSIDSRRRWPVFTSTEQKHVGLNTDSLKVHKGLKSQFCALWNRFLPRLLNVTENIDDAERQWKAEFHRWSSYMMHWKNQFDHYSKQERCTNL
Description: This method is widely used as a screening approach to assess the potential ability of compounds to block AChE-induced β-amyloid aggregation. This is because when the compounds bind to the AChE PAS, they prevent the binding of β-amyloid, thereby inhibiting its aggregation.
The enzyme was electric eel AChE (EeAChE type VI-S, lyophilized powder, Sigma-Aldrich). We selected this source of AChE for consistency with our other reports and because of the purity, specific activity, and lower cost compared to human AChE.
Propidium iodide (final concentration 8 μM) was then added for a further 15 min incubation, and the fluorescence spectrum was taken (530 nm excitation and 600 nm emission) using a FLUOStar Optima microplate reader. The same concentration of propidium iodide in the Tris buffer was used as the blank. Triplicate determinations were recorded and the results were calculated via the following equation:% Displacement = 100 − (IFAChE+ Propidium + inhibitor/IFAChE + Propidium) × 100, where IFAChE + Propidium = fluorescence intensity of propidium iodide associated with AChE in the absence of the test compound (taken as 100%), and IFAChE + Propidium + inhibitor = fluorescence intensity of propidium iodide associated with AChE in the presence of the test compound.

[4] = system: porcine liver CES; experiment: In vitro CES inhibition (4-NPA substrate); type: biochemical; settings: compound 20 µM, n.a. = not active
Description: (§2) Assessment of the esterase profile of new potential anti-AD molecules enables the estimation of both the primary pharmacological effects of the tested compounds—their inhibition of AChE and BChE—and their possible unwanted side effect—inhibition of CES, which hydrolyzes numerous ester-containing drugs. For the esterase profile evaluation, human erythrocyte AChE, equine serum BChE, and porcine liver CES were used. These sources of BChE and CES were employed because of their relatively low cost, high sequence identity to human enzymes, and the exploratory character of this work.
(§3) Chromophore absorbances were measured with a FLUOStar Optima microplate reader (BMG Labtech, Ortenberg, Germany). […] Initially, we used a single concentration of 20 µM for all compounds.

[5] = molecular target: T3, eqBChE (Equus caballus, UniProt P81908); experiment: Kinetic study of BChE inhibition (Lineweaver-Burk); type: biochemical
T3 construct: human erythrocyte AChE, equine serum BChE, and porcine liver CES were used; purchased Sigma-Aldrich; host or cells: equine serum (tissue-derived)
T3 sequence (P81908 whole entry): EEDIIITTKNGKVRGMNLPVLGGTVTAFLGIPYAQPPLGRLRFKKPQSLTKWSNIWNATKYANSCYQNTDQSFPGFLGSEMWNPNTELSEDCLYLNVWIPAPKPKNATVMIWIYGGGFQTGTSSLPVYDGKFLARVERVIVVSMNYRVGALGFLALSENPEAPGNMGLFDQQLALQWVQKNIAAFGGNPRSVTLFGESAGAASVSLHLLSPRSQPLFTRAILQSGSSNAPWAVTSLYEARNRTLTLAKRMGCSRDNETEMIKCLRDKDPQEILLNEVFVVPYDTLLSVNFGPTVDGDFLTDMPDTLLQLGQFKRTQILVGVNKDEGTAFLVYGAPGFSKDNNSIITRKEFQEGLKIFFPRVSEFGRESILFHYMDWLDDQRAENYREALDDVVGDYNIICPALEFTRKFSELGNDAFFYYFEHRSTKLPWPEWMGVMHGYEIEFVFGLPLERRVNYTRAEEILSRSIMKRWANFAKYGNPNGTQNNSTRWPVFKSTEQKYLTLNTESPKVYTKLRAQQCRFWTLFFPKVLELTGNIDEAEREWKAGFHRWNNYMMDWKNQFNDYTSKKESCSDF
Method: Similar results were obtained for other tested compounds (Figures S61 and S62). The obtained values of inhibition constants (Ki = competitive component and αKi = non-competitive component) are shown in Table 2.
as §1

[6] = molecular target: β-amyloid (1–42) (Aβ42) (Homo sapiens, UniProt P05067); experiment: Inhibition of Aβ42 self-aggregation (thioflavin T); type: biochemical; settings: read-out: Inhibition of Aβ42 Self-Aggregation
β-amyloid (1–42) (Aβ42), sequence (P05067 672-713 limits assumed): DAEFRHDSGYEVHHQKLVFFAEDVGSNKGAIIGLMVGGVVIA
Method: The inhibitory activity of tested hybrids against the self-aggregation of Aβ42 was determined in vitro using the thioflavin T (ThT) fluorimetric assay. According to [84], the ThT test is ideal for preliminary screening of inhibitors of Aβ42 self-aggregation, as it enables the quantitative testing of large numbers of compounds within a relatively short time.
The influence of the inhibitory effect of the test compounds toward Aβ42 self-aggregation was determined using the thioflavin T (ThT) fluorescence method with minor modifications. This assay is based on a specific interaction between the fluorescent dye thioflavin T that binds to the β-sheets of assembled amyloid fibrils leading to a significant increase in fluorescence signal. Therefore, the decrease in ThT fluorescence correlates with the ability of the studied compounds to inhibit the formation of amyloid aggregates.
One mg of lyophilized HFIP-pretreated Aβ42 from BACHEM (Bubendorf, Switzerland) was dissolved in DMSO to obtain a stable initial solution ([Aβ42] = 500 μM); then it was aliquoted and stored at −20 °C.
For the measurement of Aβ42 self-aggregation and amyloid fibril inhibition studies by the tested compounds, aliquots of 500 μM Aβ42 stock solution were diluted in 215 mM Na-phosphate buffer pH = 8.0 to a final concentration of 50 μM Aβ42. Then the samples were incubated for 24 h at 37 °C without stirring in the absence (base level of Aβ42 self-aggregation, control) or presence of the test compounds. Myricetin and propidium iodide were used as reference compounds (positive controls). All compounds were used in a concentration of 100 µM. To quantify Aβ42 fibril formation, after incubation, 5 μM ThT in 50 mM glycine-NaOH buffer pH 8.5 was added to the solutions to a final concentration of 4 μM ThT and the fluorescence was measured at 440 nm (excitation) and 485 nm (emission). Analyses were performed with a FLUOStar Optima microplate reader (LabTech, Ortenberg, Germany). The blanks consisted of 215 mM Na-phosphate buffer, pH = 8.0, 20% (v/v) DMSO or test compounds, respectively. Each assay was run in triplicate.

[7] = molecular target: T4, human erythrocyte AChE (Homo sapiens, UniProt P22303); experiment: biochemical; settings: mean ± SEM, n = 3, read-out: Inhibitory activity against AChE, IC50
T4 construct: human erythrocyte AChE, equine serum BChE, and porcine liver CES were used; purchased Sigma-Aldrich; host or cells: human erythrocytes (tissue-derived)
T4 sequence (P22303 32-617 isoform P22303-2 limits assumed): as the sequence (P22303 32-617 isoform P22303-2 limits assumed) above
Description: as §2, §3

[8] = molecular target: T5, equine serum BChE (Equus caballus, UniProt P81908); experiment: biochemical; settings: mean ± SEM, n = 3, read-out: Inhibitory activity against BChE, IC50
T5 construct: human erythrocyte AChE, equine serum BChE, and porcine liver CES were used; purchased Sigma-Aldrich; host or cells: equine serum (tissue-derived)
T5 sequence (P81908 whole entry): as the sequence (P81908 whole entry) above
Description: as §2, §3

[9] = Metal chelation by UV-Vis spectroscopy, Cu2+; settings: ethanol, 25 °C; compound and metal 40 μM; difference spectra; two bands per compound
[10] = ABTS radical cation scavenging assay; set-up: key to ABTS^•+ Scavenging Activity, TEAC: TEAC: ratio of compound slope to Trolox slope (Trolox equivalents); settings: 1 h incubation
Method: In the ABTS assay, the dark-green ABTS cation-radical (ABTS^•+) is quenched by interaction with AOs. The consequent decrease in absorbance is followed spectrophotometrically per the previously described method.
Radical scavenging activity of the compounds was assessed using the ABTS radical cation (ABTS^•+) decolorization assay with some modifications. ABTS (2,2′-azinobis-(3-ethylbenzothiazoline-6-sulfonic acid) was purchased from Tokyo Chemical Industry Co., Ltd. (Tokyo, Japan); potassium persulfate (dipotassium peroxodisulfate), Trolox (6-hydroxy-2,5,7,8-tetramethylchroman-2-carboxylic acid), and HPLC-grade ethanol and DMSO were obtained from Sigma-Aldrich (Saint Louis, MO, USA). Aqueous solutions were prepared using deionized water. All tested compounds were dissolved in DMSO.
The solution of cation radical ABTS^•+ was produced by incubation of an aqueous solution of 7 mM ABTS and 2.45 mM potassium persulfate solution in equal quantities for 12–16 h at room temperature in the dark. Radical scavenging capacity of the compounds was analyzed by mixing 10 μL of compound with 240 μL of ABTS^•+ working solution in ethanol (100 μM final concentration). The reaction was monitored for an hour at 30 °C with an interval of 10 min. Data are given for 1 h of incubation of compounds with ABTS^•+. The reduction in absorbance was measured spectrophotometrically at 734 nm using an xMark microplate UV/VIS spectrophotometer (Bio-Rad, Hercules, CA, USA). Ethanol blanks were run in each assay. Values were obtained from five replicates of each sample and three independent experiments.
The standard AO Trolox was used as a reference compound. AO capacity as Trolox equivalent (TEAC) values was determined as the ratio between the slopes obtained from the linear correlation of the ABTS radical absorbance with the concentrations of tested compounds and Trolox. Ascorbic acid was used as a positive control. […]. The compounds were tested in the concentration range of 0.5–100 µM.

[11] = in vitro; type: cell-based; settings: mouse
Method: […]. Accordingly, in the present work, we paid special attention to the study of the cytotoxic activity of compounds on primary cultures of mouse hepatocytes using standard MTT methodology.
The cytotoxicity of the compounds was evaluated using a primary culture of mouse hepatocytes isolated at the Center for Biotechnology and Bioengineering, Ural Federal University, Ekaterinburg, Russia, according to the standard method. Cells were seeded in 96-well plates in the inoculum dose of 1 × 10^4 cells/mL and cultured for 24 h in Dulbecco’s Modified Eagle Medium (DMEM), with 1% (w/v) glutamine in the presence of 10% (v/v) fetal bovine serum and gentamicin (50 mg/L) at 37 °C, with a humidified atmosphere of 5% (v/v) CO2. Cell viability was assessed using the standard MTT assay. The compounds were dissolved in DMSO and then in a nutrient medium, after which they were added to the wells with cells at final concentrations of 10^−7, 10^−6, 10^−5, and 10^−4 M. Hepatocytes were exposed to test compounds for 24 h at 37 °C, 95% relative humidity and 5% (v/v) CO2 atmosphere. After incubation, the medium was replaced with 100 μL of fresh medium containing MTT (0.5 mg/mL). The plates were then incubated at 37°C in a CO2 incubator for 2 h. Then the medium with MTT was removed and DMSO was added to dissolve the formazan crystals.
The results of the MTT assay were evaluated on a Tecan Infinite M200 PRO (Tecan Austria GmbH, Grödig, Austria) plate spectrophotometer at 570 nm by comparing the optical density of a formazan solution in the assay and control wells. The cell viability was expressed as the percentage of untreated control. The results were obtained from three independent experiments performed in six replicates. The IC50 (μM) values were calculated by the AAT Bioquest-calculator: (https://www.aatbio.com/tools/ic50-calculator, accessed on 1 December 2022) and expressed as a mean ± standard error of the mean (SEM). Statistical analysis was carried out using Microsoft Excel 2007 (Microsoft Corporation, Redmond, WA, USA) and Statistica 2009 (Tulsa, OK, USA) programs.

[12] = mixed-type inhibition, mean ± SEM
[13] = Aβ42 50 µM, compound 100 µM, 24 h, 37 °C, thioflavin T

For COc1cc(F)c(F)cc1C(=O)NCCCCCCCCNc1c2c(nc3ccccc13)CCCC2 [8c], the “FRAP, TE” value [1] was 0.02, the “αKi (non-competitive inhibition constant), AChE” value [2, 12] was 0.0998 ± 0.0058 µM and the Ki ([2]; read-out: Ki (competitive inhibition constant), AChE) was 53.6 ± 2.5 nM. The “Propidium Displacement from EeAChE PAS” value [3] was 15.1 ± 1.2%, the “Inhibitory activity against CES, inhibition at 20 µM” value [4] was 19.8 ± 3.1% and the “αKi (non-competitive inhibition constant), eqBChE” value [5, 12] was 0.0187 ± 0.0013 µM. For the same molecule, the Ki ([5]; read-out: Ki (competitive inhibition constant), eqBChE) was 17.7 ± 0.7 nM, the inhibition at 100 µM [6, 13] was 54.1 ± 4.3% and the IC50 [7] was 142 ± 11 nM. The IC50 [8] was 31.7 ± 2.4 nM.

With Oc1ccccc1/C=N/CCCCCCNc1c2c(nc3ccccc13)CCCC2 [10b] the “FRAP, TE” value [1] was 0.03, the “Shift of Absorbance, Cu(II)” value [9] was 255 nm and the “Propidium Displacement from EeAChE PAS” value [3] was 18.2 ± 1.4%. For the same molecule, the “Inhibitory activity against CES, inhibition at 20 µM” value [4] was 17.9 ± 0.8%, the inhibition at 100 µM [6, 13] was 67.9 ± 5.4% and the IC50 [7] was 103 ± 6 nM. For the same molecule, the IC50 [8] was 35.4 ± 1.7 nM, the IC50 ([10]; 50% reduction of ABTS radical cation) was 31800 ± 1600 nM and the “ABTS^•+ Scavenging Activity, TEAC” value ([10]; Trolox equivalent, n.a. = not active) was 0.47 ± 0.04.

Nc1c2c(nc3ccccc13)CCCC2 [Tacrine, reference compound] gave an IC50 at 24 h [11] of 3780 ± 150 nM and an inhibition at 100 µM [6] of 5.9 ± 0.5%.
